Assay results taken from patent publication EP4342890A1, “PLATFORM AND SCAFFOLD FOR FAP TARGETING AGENTS” (Erasmus University Rotterdam Medical Center, priority 2022, dated 2024).

Legend:
FAP = target: T1, FAP (Homo sapiens, UniProt Q12884); experiment: In vitro inhibition assay on human FAP (Z-GP-AMC substrate); type: biochemical; details: enzymatic assay; 20 µM Z-GP-AMC, 20 nM FAP; unit inferred
T1 sequence (Q12884 1-760): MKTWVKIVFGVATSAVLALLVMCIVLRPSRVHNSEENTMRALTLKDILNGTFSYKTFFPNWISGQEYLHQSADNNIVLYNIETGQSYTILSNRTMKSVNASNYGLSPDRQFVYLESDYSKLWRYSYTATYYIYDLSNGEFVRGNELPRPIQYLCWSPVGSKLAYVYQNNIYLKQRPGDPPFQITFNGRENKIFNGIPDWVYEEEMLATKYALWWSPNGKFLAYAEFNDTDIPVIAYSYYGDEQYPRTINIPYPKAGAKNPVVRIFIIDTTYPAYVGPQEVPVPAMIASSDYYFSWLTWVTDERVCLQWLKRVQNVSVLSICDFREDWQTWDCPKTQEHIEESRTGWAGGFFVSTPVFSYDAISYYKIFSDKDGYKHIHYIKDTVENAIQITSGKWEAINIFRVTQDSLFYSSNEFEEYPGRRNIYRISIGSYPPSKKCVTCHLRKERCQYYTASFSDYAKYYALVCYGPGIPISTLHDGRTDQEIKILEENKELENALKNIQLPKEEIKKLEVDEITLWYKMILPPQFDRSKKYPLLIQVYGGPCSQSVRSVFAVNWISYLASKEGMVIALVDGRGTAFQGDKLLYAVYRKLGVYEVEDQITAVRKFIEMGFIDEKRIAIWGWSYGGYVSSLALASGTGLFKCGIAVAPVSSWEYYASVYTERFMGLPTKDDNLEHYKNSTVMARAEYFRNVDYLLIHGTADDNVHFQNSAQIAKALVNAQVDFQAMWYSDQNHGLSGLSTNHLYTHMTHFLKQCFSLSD
Method: Enzymatic activity of human FAP (hFAP) and mouse FAP (mFAP) on the Z-GP-AMC substrate was measured at room temperature on a Hidex microplate reader by monitoring the fluorescence at an excitation wavelength of 360 nm and an emission wavelength of 465 nm. The reaction mixture contained 20 µM substrate, 20 nM FAP, assay buffer (50 mM Tris, 100 mM NaCl, 1 mM EDTA, pH 7.4) and tested compound (serial dilution from 10^-6 to 10^-12) in a total volume of 50 µL.

[1] = LogD7.4 shake-flask method (n-octanol/PBS); type: physicochemical; details: radiolabeled compound; n-octanol/PBS pH 7.4; triplicates
Method: Distribution coefficients (LogD7.4 values) were determined by a shake-flask method. Sample containing the ^203Pb-labeled compound was added to a vial containing 600 µL PBS (pH 7.4) and 600 µL n-octanol. The vial was vortexed vigorously and then centrifuged for 10 min for phase separation. Samples of the octanol (200 µL) and aqueous (200 µL) phases were taken and counted on a PerkinElmer WIZARD 2480 gamma counter. LogD7.4 value was calculated by using the equation: LogD7.4 = log [(counts in octanol phase)/(counts in aqueous phase)]. All the experiments were performed in triplicates.

FAP^+ U-87 cells = experiment: Cytotoxicity assay (resazurin) in U-87 cells; type: cell-based; details: single dose 1 µM, incubation time not stated
Method: In 96-well plates, U-87 cells (3 × 10^3) were seeded in each well and incubated at 37 °C and 5% CO2 for 24 h. The medium was removed and the wells were washed once with PBS. The cytotoxic drug (positive control) or the eFAP conjugate containing the drug were prepared at various concentrations (i.e., 1, 10, 100, 1000 nM) in DMEM culture medium, supplemented with 2 mM L-glutamine, 10% FBS, 50 units/mL penicillin, and 50 µg/mL streptomycin. Medium was used as a negative control. Cells were incubated with 100 µL of the tested compounds for 1, 24, 48, and 72 h. After incubation, medium was removed and each well was washed once with PBS. Next, 100 µL of 10% resazurin solution in culture medium was added to each well and incubated for 2.5 h. Fluorescence measurements were carried out using a microplate reader at 544 nm excitation and 590 nm emission.

U-87 tumor = experiment: Near-infrared fluorescence imaging of U-87 tumor bearing mice; type: in vivo; details: 2 nmol intravenous
From the text: Six-week-old male Balb/c nu/nu-specific and opportunistic pathogen-tree (SOPF) mice were housed in individually ventilated cages, with 4 mice per cage. Upon arrival, mice were acclimated for 1 week, with access to food and water ad libitum. Mice were subcutaneously inoculated on the right shoulder with U-87 or HT-1080.hFAP cells (1 × 10^6 cells). Xenografts were allowed to grow until they reached an appropriate size at the start of the studies. All animal experiments were approved by the Animal Welfare Committee of the Erasmus MC and were conducted in agreement with institutional guidelines (license number: AVD101002017867).
Evaluation of targeting performance of eFAP-17 in near-infrared fluorescence imaging of U-87 tumor bearing mice after intravenous injection of 2 nmol of the probe are given in Figure 9 showing A) NIRF imaging of U-87 tumor bearing mice at 1 h after intravenous injection of 2 nmol of CW800 (left, negative control) or eFAP-17 (right) and B) image of excised tumors 2.5 h post administration of CW800 (left) or eFAP-17 (right).

| Compound | IC50 (FAP) [nM] | LogD7.4 [1] | also measured |
| --- | --- | --- | --- |
| N#C[C@@H]1CC(F)(F)CN1C(=O)CNC(=O)c1ccnc2c(OCCCNC(=O)C3CCC(CNC(=O)CN4CCN(CC(=O)O)CCN(CC(=O)O)CCN(CC(=O)O)CC4)CC3)cccc12 (stereo partly drawn) [eFAP-9, 2,2',2"-(10-(2-(((4-((3-((4-((2-((S)-2-Cyano-4,4-difluoropyrrolidin-1-yl)-2-oxoethyl)carbamoyl)quinolin-8-yl)oxy)propyl)carbamoyl)cyclohexyl)methyl)amino)-2-oxoethyl)-1,4,7,10-tetraazacyclododecane-1,4,7-triyl)triacetic acid] | 3.6 ± 2.3 | -3.47 ± 0.07 | – |
| N#C[C@@H]1CC(F)(F)CN1C(=O)CNC(=O)c1ccnc2c(OCCCNC(=O)CCC(C(=O)O)N3CCN(CC(=O)O)CCN(CC(=O)O)CCN(CC(=O)O)CC3)cccc12 (stereo partly drawn) [eFAP-8, 2,2',2"-(10-(1-Carboxy-4-((3-((4-((2-((S)-2-cyano-4,4-difluoropyrrolidin-1-yl)-2-oxoethyl)carbamoyl)quinolin-8-yl)oxy)propyl)amino)-4-oxobutyl)-1,4,7,10-tetraazacyclododecane-1,4,7-triyl)triacetic acid] | 1.7 ± 0.5 | -3.58 ± 0.09 | – |
| N#C[C@@H]1CC(F)(F)CN1C(=O)CNC(=O)c1ccnc2c(OCCCNC(=O)CN3CCN(CCNC(=O)CN4CCN(CC(=O)O)CCN(CC(=O)O)CCN(CC(=O)O)CC4)CC3)cccc12 [eFAP-13, (S)-2,2',2"-(10-(2-((2-(4-(2-((3-((4-((2-(2-Cyano-4,4-difluoropyrrolidin-1-yl)-2-oxoethyl)carbamoyl)quinolin-8-yl)oxy)propyl)amino)-2-oxoethyl)piperazin-1-yl)ethyl)amino)-2-oxoethyl)-1,4,7,10-tetraazacyclododecane-1,4,7-triyl)triacetic acid] | 1.7 ± 0.5 | -3.28 ± 0.15 | – |
| N#C[C@@H]1CC(F)(F)CN1C(=O)CNC(=O)c1ccnc2c(OCCCNC(=O)CN3CCN(C(=O)CN4CCN(CC(=O)O)CCN(CC(=O)O)CCN(CC(=O)O)CC4)CC3)cccc12 [eFAP-12, (S)-2,2',2"-(10-(2-(4-(2-((3-((4-((2-(2-Cyano-4,4-difluoropyrrolidin-l-yl)-2-oxoethyl)carbamoyl)quinolin-8-yl)oxy)propyl)amino)-2-oxoethyl)piperazin-1-yl)-2-oxoethyl)-1,4,7,10-tetraazacyclododecane-1,4,7-triyl)triacetic acid] | – | -3.72 ± 0.08 | – |
| (1^4S,1^6S,3^2S,3^3S,2R,4S,10E,12E,14R)-8^6-chloro-1^4-hydroxy-8^5,14-dimethoxy-3^3,2,7,10-tetramethyl-1^2,6-dioxo-7-aza-1(6,4)-oxazinana-3(2,3)-oxirana-8(1,3)-benzenacyclotetradecaphane-10,12-dien-4-yl N-(3-((3-((3-((4-((2-((S)-2-cyano-4,4-difluoropyrrolidin-1-yl)-2-oxoethyl)carbamoyl)quinolin-8-yl)oxy)propyl)amino)-3-oxopropyl)disulfaneyl)propanoyl)-N-methyl-L-alaninate [eFAP-18] | – | – | cell viability (FAP^+ U-87 cells): approximately 25% |
| N#C[C@@H]1CC(F)(F)CN1C(=O)CNC(=O)c1ccnc2c(OCCCNC(=O)COCC(=O)Nc3ccc(CNC(=O)CN4CCN(CC(=O)O)CCN(CC(=O)O)CCN(CC(=O)O)CC4)cc3)cccc12 [eFAP-11, (S)-2,2',2"-(10-(2-((4-(2-(2-((3-((4-((2-(2-Cyano-4,4-difluoropyrrolidin-1-yl)-2-oxoethyl)carbamoyl)quinolin-8-yl)oxy)propyl)amino)-2-oxoethoxy)acetamido)benzyl)amino)-2-oxoethyl)-1,4,7,10-tetraazacyclododecane-1,4,7-triyl)triacetic acid] | 1.8 ± 0.8 | -3.34 ± 0.07 | – |
| COc1cc2cc(c1Cl)N(C)C(=O)C[C@H](OC(=O)[C@H](C)N(C)C(=O)CCS)[C@]1(C)O[C@H]1[C@H](C)[C@@H]1C[C@@](O)(NC(=O)O1)[C@H](OC)/C=C/C=C(\C)C2 [DM1, Mertansine] | – | – | cell viability (FAP^+ U-87 cells): 40% |
| CC1(C)C(/C=C/C2=C(Oc3ccc(S(=O)(=O)O)cc3)C(=C/C=C3/N(CCCCCC(=O)NCCCOc4cccc5c(C(=O)NCC(=O)N6CC(F)(F)C[C@H]6C#N)ccnc45)c4ccc(S(=O)(=O)O)cc4C3(C)C)/CCC2)=[N+](CCCCS(=O)(=O)[O-])c2ccc(S(=O)(=O)O)cc21 [eFAP-17, 4-(2-((E)-2-((E)-3-(2-((E)-1-(6-((3-((4-((2-((S)-2-Cyano-4,4-difluoropyrrolidin-1-yl)-2-oxoethyl)carbamoyl)quinolin-8-yl)oxy)propyl)amino)-6-oxohexyl)-3,3-dimethyl-5-sulfoindolin-2-ylidene)ethylidene)-2-(4-sulfophenoxy)cyclohex-1-en-1-yl)vinyl)-3,3-dimethyl-5-sulfo-3H-indol-1-ium-1-yl)butane-1-sulfonate] | 5.6 ± 1.6 | – | accumulation in healthy tissues (U-87 tumor; NIRF imaging): low accumulation in healthy tissues; uptake in the FAP overexpressing tumor (U-87 tumor; NIRF imaging at 1 h, excised tumors 2.5 h): high uptake in the FAP overexpressing tumor |
| N#C[C@@H]1CC(F)(F)CN1C(=O)CNC(=O)c1ccnc2c(OCCCNC(=O)CN3CCC(NC(=O)CN4CCN(CC(=O)O)CCN(CC(=O)O)CCN(CC(=O)O)CC4)CC3)cccc12 [eFAP-10, (S)-2,2',2"-(10-(2-((1-(2-((3-((4-((2-(2-Cyano-4,4-difluoropyrrolidin-1-yl)-2-oxoethyl)carbamoyl)quinolin-8-yl)oxy)propyl)amino)-2-oxoethyl)piperidin-4-yl)amino)-2-oxoethyl)-1,4,7,10-tetraazacyclododecane-1,4,7-triyl)triacetic acid] | – | -3.64 ± 0.02 | – |
